Results on 33 molecules are retold here after US8188273B2, “Insecticidal (1,3,5)-triazinyl phenyl hydrazones” (Dow AgroSciences, LLC., priority 2007, dated 2012).

For experiment [1], the system named is beet armyworm (Spodoptera exigua). Description: Insecticidal test on treated lepidopteran diet, beet armyworm. The settings on record: 120 h, second-instar larvae on treated diet, 8 wells, dose of 50 mg/cm^2 [sic] (2000 ppm, 50 μL), dead insects counted 5 days after treatment, read-out: AVG LAPHEG 50 (percent control, beet army worm). The class given is in vivo. As for the experimental part:
(§1) The compounds identified in Table 1 were prepared according to the previous methods and were tested against beet armyworm and corn earworm as follows:
(§2) Insecticidal Test for Corn Earworm (Helicoverpa zea) and Beet Armyworm (Spodoptera exigua).
(§3) To prepare test solution, the test compound was formulated at 2000 ppm solution as 4 mg/2 mL of 9 acetone:1 tap water. 50 μL of the 2000 ppm (equivalent to 50 μg/cm^2 dose on diet surface area) test solution was pipetted upon the surface of 1 mL of lepidopteran diet (Southland Multi-Species Lepidopteran Diet) contained in each of eight wells per insect species (one well=1 replication). A second-instar corn earworm and beet armyworm was placed upon the treated diet in each well once the solvent had air-dried. Trays containing the treated diet and larvae were covered and then held in a growth chamber at 25° C., 50-55% RH, and 16 hr light:8 hr dark for 5 days. Observation were conducted 5 days after treatment and infestation. The number of dead insects of 8 per species per treatment was then determined and the results are given in Table 1 as a percent control at a dose of […].
(§4) Keys to the table: Mass spectral data were obtained using liquid chromatography mass spectroscopy (LC-MS). The masses are detected using electrospray ionization (ESI) and reported as Mol Ion (M+H, M−H); AVG LAPHEG 50 refers to activity against beet army worm (Spodoptera exigua) as defined above; AVG HELIZE 50 refers to activity against corn ear worm (Helicoverpa zea) as described above.

The test system of experiment [2] is corn earworm (Helicoverpa zea). Put plainly: Insecticidal test on treated lepidopteran diet, corn earworm. Type of experiment: in vivo. The note with it: 120 h; second-instar larvae on treated diet, 8 wells; dose of 50 mg/cm^2 [sic] (2000 ppm, 50 μL); dead insects counted 5 days after treatment; read-out: AVG HELIZE 50 (percent control, corn ear worm). The procedure:
as §1, §2, §3, §4

On to `FC(F)(F)COc1nc(N/N=C/c2ccccc2Br)nc(Nc2ccc(OC(F)(F)F)cc2)n1` [Compound 34], for which the pest or weed control at 2000 µg/mL in experiment [1] and in experiment [2] was 100% in each case.
Consider `FC(F)(F)COc1nc(N/N=C/c2ccc(Br)cc2)nc(Nc2ccc(OC(F)(F)F)cc2)n1` [Compound 98], for which the pest or weed control at 2000 µg/mL in experiment [1] and in experiment [2] was 100% in each case.
As to `FC(F)(F)Oc1ccc(Nc2nc(N/N=C/c3cccc(Br)c3)nc(N3CCOCC3)n2)cc1` [Compound 38], the pest or weed control at 2000 µg/mL in experiment [1] stood at 0%; in experiment [2], 100%.
The matching figures for `FC(F)(F)COc1nc(N/N=C/c2ccc(Cl)c(Cl)c2)nc(Nc2ccc(OC(F)(F)F)cc2)n1` [Compound 30]: 100% and 100%.
Turning to `Fc1ccc(Nc2ncnc(N/N=C/c3cccc(C(F)(F)F)c3)n2)cc1C(F)(F)F` [Compound 102], the pest or weed control at 2000 µg/mL in experiment [1] and in experiment [2] was 100% each time.
Take `Fc1ccc(Nc2nc(NCc3ccc(Cl)nc3)nc(N/N=C/c3ccc(OC(F)(F)F)cc3)n2)cc1C(F)(F)F` [Compound 2, N-(6-Chloropyridin-3-ylmethyl)-N′-(4-fluoro-3-trifluoromethylphenyl)-6-{N′-[1-(4-trifluoromethoxyphenyl)-methylidene]-hydrazino}-[1,3,5]triazine-2,4-diamine]: the pest or weed control at 2000 µg/mL in experiment [1] and in experiment [2] was 100% throughout.
`FC(F)C(F)(F)Oc1ccc(Nc2nc(NCc3ccc(Cl)nc3)nc(N/N=C/c3ccc(Cl)c(Cl)c3)n2)cc1` [Compound 94]: the pest or weed control at 2000 µg/mL in experiment [1] and in experiment [2] was 100% in each case.
Turning to `FC(F)C(F)(F)Oc1ccc(Nc2nc(N/N=C/c3ccc(Cl)c(Cl)c3)nc(N3CCOCC3)n2)cc1` [Compound 89], the pest or weed control at 2000 µg/mL in experiment [1] and in experiment [2] was 100% in each case.
Consider `Fc1ccc(Nc2nc(NCc3ccc(Cl)nc3)nc(N/N=C/c3ccc(C(F)(F)F)cc3)n2)cc1C(F)(F)F` [Compound 65], for which the pest or weed control at 2000 µg/mL in experiment [1] and in experiment [2] was 100% throughout.
For `Fc1ccc(Nc2nc(NCc3ccc(Cl)nc3)nc(N/N=C/c3cccc(Br)c3)n2)cc1C(F)(F)F` [Compound 70], the pest or weed control at 2000 µg/mL in experiment [1] and in experiment [2] was 100% in each case.
Turning to `COc1ccc(CNc2nc(N/N=C/c3ccc(OC(F)(F)F)cc3)nc(Nc3ccc(F)c(C(F)(F)F)c3)n2)cn1` [Compound 82], the pest or weed control at 2000 µg/mL in experiment [1] and in experiment [2] was 100% in each case.
Take `Fc1ccc(Nc2nc(N/N=C/c3ccc(OC(F)(F)C(F)F)cc3)nc(N3CCOCC3)n2)cc1C(F)(F)F` [Compound 52]: the pest or weed control at 2000 µg/mL in experiment [1] and in experiment [2] was 100% in each case.
As for `FC(F)C(F)(F)Oc1ccc(Nc2ncnc(N/N=C/c3cccc(C(F)(F)F)c3)n2)cc1` [Compound 104], the pest or weed control at 2000 µg/mL is 50% in experiment [1] and 88% in experiment [2].
`Cc1cnc(CNc2nc(N/N=C/c3ccc(OC(F)(F)F)cc3)nc(Nc3ccc(F)c(C(F)(F)F)c3)n2)cn1` [Compound 57]: the pest or weed control at 2000 µg/mL in experiment [1] and in experiment [2] was 100% throughout.
As for `O=C1CN(c2nc(N/N=C/c3cccc(C(F)(F)F)c3)nc(Nc3ccc(OC(F)(F)F)cc3)n2)CCN1` [Compound 7], the pest or weed control at 2000 µg/mL in experiment [1] and in experiment [2] was 100% throughout.
Take `Fc1ccc(/C=N/Nc2nc(NCc3ccc(Cl)nc3)nc(Nc3ccc(F)c(C(F)(F)F)c3)n2)cc1` [Compound 76]: the pest or weed control at 2000 µg/mL in experiment [1] and in experiment [2] was 100% each time.
`FC(F)(F)Oc1ccc(Nc2nc(N/N=C/c3ccccc3Br)nc(N3CCOCC3)n2)cc1` [Compound 43]: the pest or weed control at 2000 µg/mL in experiment [1] turned out to be 13%; in experiment [2], 0%.
On to `FC(F)C(F)(F)Oc1ccc(Nc2nc(NCc3ccc(Cl)nc3)nc(N/N=C/c3ccc(Cl)cc3)n2)cc1` [Compound 87], for which the pest or weed control at 2000 µg/mL in experiment [1] and in experiment [2] was 100% throughout.
Turning to `CCCOc1ccc(Nc2nc(N/N=C/c3cccc(OC(F)(F)C(F)F)c3)nc(N3CCOCC3)n2)cc1` [Compound 79], the pest or weed control at 2000 µg/mL came to 13% in experiment [1] and 100% in experiment [2].
As for `CCNc1nc(N/N=C/c2ccc(F)cc2)nc(Nc2ccc(OC(F)(F)F)cc2)n1` [Compound 18], the figures for the pest or weed control at 2000 µg/mL in experiment [1] and in experiment [2] were 75% and 38%, respectively.
In the same order, the values of `FC(F)(F)COc1nc(N/N=C/c2c(Cl)cccc2Cl)nc(Nc2ccc(OC(F)(F)F)cc2)n1` [Compound 35] are 100% and 100%.
In the same order, the values of `CCOc1nc(N/N=C/c2cccc(C(F)(F)F)c2)nc(Nc2ccc(OC(F)(F)F)cc2)n1` [Compound 10] are 13% and 0%.
For `FC(F)(F)COc1nc(N/N=C/c2cccc(Cl)c2)nc(Nc2ccc(OC(F)(F)F)cc2)n1` [Compound 27], the pest or weed control at 2000 µg/mL in experiment [1] and in experiment [2] was 100% each time.
For `FC(F)C(F)(F)Oc1cccc(/C=N/Nc2nc(Nc3ccc(OC(F)(F)F)cc3)nc(N3CCOCC3)n2)c1` [Compound 61], the pest or weed control at 2000 µg/mL in experiment [1] and in experiment [2] was 100% in each case.
For the molecule `Fc1cc(C(F)(F)F)ccc1Nc1nc(N/N=C/c2cccc(OC(F)(F)C(F)F)c2)nc(N2CCOCC2)n1` [Compound 81], the pest or weed control at 2000 µg/mL in experiment [1] and in experiment [2] was 100% in each case.
As for `FC(F)(F)Oc1ccc(/C=N/Nc2nc(Nc3cccc(C(F)(F)F)c3)nc(N3CCOCC3)n2)cc1` [Compound 62], the pest or weed control at 2000 µg/mL in experiment [1] and in experiment [2] was 100% each time.
Consider `FC(F)(F)Oc1ccc(/C=N/Nc2ncnc(Nc3cccc(C(F)(F)F)c3)n2)cc1` [Compound 101], for which the pest or weed control at 2000 µg/mL in experiment [1] and in experiment [2] was 100% in each case.
Regarding `FC(F)C(F)(F)Oc1ccc(/C=N/Nc2ncnc(Nc3cccc(C(F)(F)F)c3)n2)cc1` [Compound 100], the pest or weed control at 2000 µg/mL in experiment [1] and in experiment [2] was 100% each time.
Take `FC(F)C(F)(F)Oc1cccc(/C=N/Nc2nc(Nc3cccc(OC(F)(F)F)c3)nc(N3CCOCC3)n2)c1` [Compound 83]: the pest or weed control at 2000 µg/mL in experiment [1] and in experiment [2] was 100% throughout.
`Fc1ccc(Nc2nc(NCc3ccc(Cl)nc3)nc(N/N=C/c3ccc(Cl)c(Cl)c3)n2)cc1C(F)(F)F` [Compound 71]: the pest or weed control at 2000 µg/mL in experiment [1] and in experiment [2] was 100% in each case.
`FC(F)(F)Oc1ccc(Nc2nc(N/N=C/c3c(Cl)cccc3Cl)nc(N3CCOCC3)n2)cc1` [Compound 44]: the pest or weed control at 2000 µg/mL in experiment [1] amounted to 13%; in experiment [2] it was 0%.
The matching figures for `Fc1ccc(Nc2nc(NCc3ccc(Cl)nc3)nc(N/N=C/c3cccc(C(F)(F)F)c3)n2)cc1C(F)(F)F` [Compound 74]: 100% and 100%.
Regarding `O=C1CN(c2nc(N/N=C/c3ccc(OC(F)(F)F)cc3)nc(Nc3ccc(OC(F)(F)F)cc3)n2)CCN1` [Compound 6], the pest or weed control at 2000 µg/mL in experiment [1] and in experiment [2] was 100% each time.
